Laboratory results taken from patent US20250100977A1, “MERCAPTOPYRIMIDINE COMPOUNDS THAT INHIBIT NONHOMOLOGOUS END JOINING AND METHODS THEREOF” (INDIAN INSTITUTE OF SCIENCE, priority 2021, published 2025).
Read-outs that look alike come from different tables or passages of the source.

Key:
Nalm6 = experiment: Cytotoxicity (viable cells) in Nalm6; assay type: cell-based; conditions: Table 2; read-out: IC50 in cancer cell lines, Nalm6
Experimental: (§1) The compounds of the present invention were screened initially in leukemic and cervical cancer cell lines (Table 1). […] In cervical cancer cell line HeLa, IC50 was 5 and 2 μM, respectively for SCR116 and SCR132 (FIG. 5A-B).
(§2) Ligase IV specificity of the compounds of the present invention inside the cells were also determined using Ligase IV knock out (KO) cell line N114 compared to the wild type Nalm6 (Table 2, FIGS. 5C, D, E and F). […] Table 1 showing IC50 of SCR7 derivatives in cancer cell lines Nalm6 and HeLa. IC50 was calculated using GraphPad Prism software from the percentage of viable cells following treatment with the compounds at 48 h. Table 2 showing IC50 of SCR116 and SCR132 in a panel of 16 cancer cell lines.

HeLa = experiment: Cytotoxicity (viable cells) in HeLa; assay type: cell-based; conditions: Table 2; read-out: IC50 in cancer cell lines, HeLa
Experimental: as §1, §2

Reh = experiment: Cytotoxicity in Reh; assay type: cell-based; conditions: Table 2; 48 h; read-out: IC50 in cancer cell lines, Reh
Experimental: as §1, §2

Supt1 = experiment: Cytotoxicity in Supt1; assay type: cell-based; conditions: Table 2; read-out: IC50 in cancer cell lines, Supt1
Experimental: as §2

Raji = experiment: Cytotoxicity in Raji; assay type: cell-based; conditions: Table 2; read-out: IC50 in cancer cell lines, Raji
Experimental: as §2

CEM = experiment: Cytotoxicity in CEM; assay type: cell-based; conditions: Table 2; read-out: IC50 in cancer cell lines, CEM
Experimental: as §2

SUDHL8 = experiment: Cytotoxicity in SUDHL8; assay type: cell-based; conditions: Table 2; read-out: IC50 in cancer cell lines, SUDHL8
Experimental: as §2

[1] = tested on: Ligase IV knock out (KO) cell line N114; experiment: Cytotoxicity in Ligase IV knock out cell line N114; assay type: cell-based; conditions: Table 2, 48 h, read-out: IC50 in cancer cell lines, N114
Experimental: as §2

HCT116 = experiment: Cytotoxicity in HCT116; assay type: cell-based; conditions: Table 2; read-out: IC50 in cancer cell lines, HCT116
Experimental: as §2

LN229 = experiment: Cytotoxicity in LN229; assay type: cell-based; conditions: Table 2; read-out: IC50 in cancer cell lines, LN229
Experimental: as §2

U118 = experiment: Cytotoxicity in U118; assay type: cell-based; conditions: Table 2; read-out: IC50 in cancer cell lines, U118
Experimental: as §2

EAC = experiment: Cytotoxicity in EAC; assay type: cell-based, mice; conditions: Table 2; read-out: IC50 in cancer cell lines, EAC
Experimental: as §2

L1210 = experiment: Cytotoxicity in L1210; assay type: cell-based; conditions: Table 2; read-out: IC50 in cancer cell lines, L1210
Experimental: as §2

Molt4 = experiment: Cytotoxicity in Molt4; assay type: cell-based, human; conditions: Table 2; read-out: IC50 in cancer cell lines, Molt4
Experimental: as §2

Molt3 = experiment: Cytotoxicity in Molt3; assay type: cell-based; conditions: Table 2; read-out: IC50 in cancer cell lines, Molt3
Experimental: as §2

MCF7 = experiment: Cytotoxicity in MCF7; assay type: cell-based; conditions: Table 2; read-out: IC50 in cancer cell lines, MCF7
Experimental: as §2

DNA Ligase IV/XRCC4 = target: T1, DNA Ligase IV/XRCC4 (Homo sapiens, UniProt P49917); conditions: 200 μM; background statement; cited from earlier work
T1 construct: made in house; host or cells: bacteria

[2] = tested on: Ligase IV knock out (KO) cell line N114; conditions: Vartak et al. 2018, cited from earlier work
[3] = tested on: cancer cell lines, particularly leukemia; conditions: background statement; cited from earlier work
[4] = Bioavailability in mice serum by HPLC; conditions: intraperitoneal, 20 mg/kg body weight
Experimental: The bioavailability of the compounds of the present disclosure were analysed in mice serum at different time points (0.5, 1, 2, 4, 6, 8, 10, 12, 24 and 48 h) by HPLC at 232 nm wavelength (FIGS. 10N-P).

T1 sequence (P49917 whole entry): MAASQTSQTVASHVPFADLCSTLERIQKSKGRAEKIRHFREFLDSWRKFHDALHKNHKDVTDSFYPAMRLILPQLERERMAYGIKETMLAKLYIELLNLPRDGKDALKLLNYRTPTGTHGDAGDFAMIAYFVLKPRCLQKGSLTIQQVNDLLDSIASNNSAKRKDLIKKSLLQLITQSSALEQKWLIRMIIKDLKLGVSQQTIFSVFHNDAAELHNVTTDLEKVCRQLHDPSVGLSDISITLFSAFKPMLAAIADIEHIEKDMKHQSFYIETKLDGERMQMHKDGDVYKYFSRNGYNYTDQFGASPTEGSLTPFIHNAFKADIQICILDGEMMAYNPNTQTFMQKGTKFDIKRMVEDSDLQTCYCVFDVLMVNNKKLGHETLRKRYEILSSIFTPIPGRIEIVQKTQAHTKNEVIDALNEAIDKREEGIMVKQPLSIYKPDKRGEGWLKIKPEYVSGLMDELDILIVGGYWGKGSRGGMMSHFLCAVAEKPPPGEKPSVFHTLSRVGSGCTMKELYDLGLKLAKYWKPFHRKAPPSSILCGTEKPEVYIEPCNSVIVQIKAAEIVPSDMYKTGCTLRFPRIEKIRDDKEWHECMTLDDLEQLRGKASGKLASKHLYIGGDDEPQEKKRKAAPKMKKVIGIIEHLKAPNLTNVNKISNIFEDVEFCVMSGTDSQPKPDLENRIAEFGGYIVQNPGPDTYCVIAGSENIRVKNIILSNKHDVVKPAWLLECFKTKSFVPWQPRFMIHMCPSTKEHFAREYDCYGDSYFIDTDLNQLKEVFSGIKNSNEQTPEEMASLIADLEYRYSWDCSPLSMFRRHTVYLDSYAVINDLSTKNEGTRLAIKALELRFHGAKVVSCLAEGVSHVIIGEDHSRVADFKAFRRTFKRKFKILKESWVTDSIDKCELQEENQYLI
T1 sequence (Q13426 whole entry partner): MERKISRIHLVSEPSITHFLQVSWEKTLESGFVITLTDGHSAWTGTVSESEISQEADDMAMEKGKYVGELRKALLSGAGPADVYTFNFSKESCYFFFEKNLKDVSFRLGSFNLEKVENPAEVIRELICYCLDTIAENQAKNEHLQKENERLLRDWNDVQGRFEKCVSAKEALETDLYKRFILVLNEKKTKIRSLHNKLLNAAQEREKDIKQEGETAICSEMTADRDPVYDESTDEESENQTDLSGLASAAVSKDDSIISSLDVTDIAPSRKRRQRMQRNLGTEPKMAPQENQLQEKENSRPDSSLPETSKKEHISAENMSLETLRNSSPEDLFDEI

t1/2 [4]: 1 h
SMILES: O=c1[nH]c(=S)[nH]c(N=Cc2ccccc2)c1N=Cc1ccccc1 [SCR7, reference compound]
IC50 (Nalm6): 50 µM | IC50 (HeLa): 44 µM | IC50 (Reh): > 250 µM | IC50 (Supt1): 109 µM | IC50 (Raji): > 250 µM | IC50 (CEM): > 200 µM | IC50 (SUDHL8): 100 µM | IC50 [1]: > 250 µM | IC50 (HCT116): 302 µM | IC50 (LN229): 59.9 µM | IC50 (U118): 151 µM | IC50 (EAC): 132 µM | IC50 (L1210): 370 µM | IC50 (Molt4): 182 µM | IC50 (Molt3): 79.1 µM | IC50 (MCF7): 40 µM | Inhibition of DNA Ligase IV (DNA Ligase IV/XRCC4): 50% | IC50 [2]: > 250 µM | Fold increased IC50 in N114 ([2]; vs Nalm6): 5 fold | IC50 [3]: > 250 µM
